According to ChEMBL document CHEMBL3045558, “Synthesis and primary evaluation of quinoxalinone derivatives as potent modulators of multidrug resistance” (Med Chem Res, 2009):

Key:
[1] = system: K562; experiment: Ratio of compound IC50 to adriamycin IC50 for Homo sapiens (human) K562 cells after 24 to 72 hr by MTT assay; assay type: functional
[2] = molecular target: ATP-dependent translocase ABCB1 (Homo sapiens, UniProt P08183); experiment: Inhibition of p-glycoprotein in Homo sapiens (human) K562/A02 cells assessed as reduction of adriamycin IC50 for cytotoxic effect at IC10 treated 12 hr before adriamycin challenge measured after 24 to 72 hr by MTT assay; assay type: cell-based
[3] = Cytotoxicity against Homo sapiens (human) K562/A02 cells after 24 to 72 hr by MTT assay; assay type: cell-based

Chain of ATP-dependent translocase ABCB1 (P08183 whole entry): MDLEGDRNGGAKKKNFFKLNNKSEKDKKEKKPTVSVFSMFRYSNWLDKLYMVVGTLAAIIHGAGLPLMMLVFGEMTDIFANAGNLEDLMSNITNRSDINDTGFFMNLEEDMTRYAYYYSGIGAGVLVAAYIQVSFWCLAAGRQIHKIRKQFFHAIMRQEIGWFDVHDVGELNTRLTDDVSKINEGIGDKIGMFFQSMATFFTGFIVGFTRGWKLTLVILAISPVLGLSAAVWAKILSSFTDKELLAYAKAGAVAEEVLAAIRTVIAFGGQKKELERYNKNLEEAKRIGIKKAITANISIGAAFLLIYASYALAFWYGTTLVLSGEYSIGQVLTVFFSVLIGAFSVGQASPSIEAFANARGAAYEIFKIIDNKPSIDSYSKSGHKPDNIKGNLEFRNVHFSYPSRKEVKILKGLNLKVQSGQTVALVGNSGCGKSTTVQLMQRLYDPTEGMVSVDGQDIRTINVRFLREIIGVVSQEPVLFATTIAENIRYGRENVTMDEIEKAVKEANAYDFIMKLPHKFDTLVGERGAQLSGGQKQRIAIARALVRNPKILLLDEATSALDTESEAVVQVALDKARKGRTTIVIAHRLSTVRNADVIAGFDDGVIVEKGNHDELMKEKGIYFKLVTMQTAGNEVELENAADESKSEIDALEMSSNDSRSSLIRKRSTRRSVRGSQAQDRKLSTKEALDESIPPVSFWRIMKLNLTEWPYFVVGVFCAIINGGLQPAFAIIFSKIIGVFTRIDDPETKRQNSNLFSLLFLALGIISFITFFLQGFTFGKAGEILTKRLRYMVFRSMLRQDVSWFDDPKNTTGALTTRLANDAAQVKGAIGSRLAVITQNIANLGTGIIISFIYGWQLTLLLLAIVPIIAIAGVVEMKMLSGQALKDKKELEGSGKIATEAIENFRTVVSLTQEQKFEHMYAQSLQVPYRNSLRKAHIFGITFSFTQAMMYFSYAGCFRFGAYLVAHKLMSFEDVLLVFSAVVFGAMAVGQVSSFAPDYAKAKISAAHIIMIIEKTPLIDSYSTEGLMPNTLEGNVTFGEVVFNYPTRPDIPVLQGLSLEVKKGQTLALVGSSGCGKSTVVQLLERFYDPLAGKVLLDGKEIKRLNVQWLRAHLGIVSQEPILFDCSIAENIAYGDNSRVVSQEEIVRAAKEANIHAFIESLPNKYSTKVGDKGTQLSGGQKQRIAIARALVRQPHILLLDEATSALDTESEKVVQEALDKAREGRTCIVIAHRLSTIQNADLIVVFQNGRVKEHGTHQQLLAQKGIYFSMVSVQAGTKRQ

| Compound | Ratio IC50 [1] | fold change (FC) [2] | IC10 [3] [nM] |
| --- | --- | --- | --- |
| Cc1ccc(NC(=O)Cn2c(=O)c(C)nc3ccccc32)cc1 | 1 | 3.55 | 1630 |
| Cc1nc2ccccc2n(CC(=O)Nc2ccccc2)c1=O | 1.07 | 2.45 | 34100 |
| COc1ccc(NC(=O)Cn2c(=O)c(C)nc3ccccc32)cc1OC | 1.15 | 3.75 | 1420 |
| Cc1ccccc1NC(=O)Cn1c(=O)c(C)nc2ccccc21 | 1.15 | 4.01 | 1850 |
| Cc1nc2ccccc2n(CC(=O)Nc2ccc(Br)cc2)c1=O | 0.94 | 1.24 | 2700 |
| Cc1nc2ccccc2n(CC(=O)Nc2ccc(Cl)c(Cl)c2)c1=O | 1.07 | 1.62 | 140 |
| Cc1nc2ccccc2n(CC(=O)Nc2ccc(F)c(Cl)c2)c1=O | 1 | 1.83 | 2910 |
| Cc1nc2cc(F)c(F)cc2n(CC(=O)Nc2ccccc2)c1=O | 1 | 2.41 | 1520 |
| COc1cc2nc(C)c(=O)n(CC(=O)Nc3ccccc3)c2cc1OC | 1.15 | 4.59 | 2840 |
| Cc1nc2ccccc2n(CC(=O)Nc2ccc(F)c(F)c2)c1=O | 1.07 | 5.3 | 2570 |
| COC(=O)[C@H](Cc1ccccc1)NC(=O)Cn1c(=O)c(C)nc2cc(F)c(F)cc21 | 1.15 | 1.05 | 2410 |
| COC(=O)[C@H](Cc1ccccc1)NC(=O)Cn1c(=O)c(C)nc2cc(OC)c(OC)cc21 | 1 | 1.82 | 11380 |
| COC(=O)[C@H](Cc1ccccc1)NC(=O)Cn1c(=O)c(C)nc2ccccc21 | 1.25 | 2.01 | 13190 |
| CCOC(=O)CNC(=O)Cn1c(=O)c(C)nc2ccccc21 | 1.07 | 2.37 | 16500 |
| CCOC(=O)CC[C@H](NC(=O)Cn1c(=O)c(C)nc2ccccc21)C(=O)OCC | 1.15 | 4.13 | 2480 |
| COC(=O)[C@@H]1C[C@@H](O)CN1C(=O)Cn1c(=O)c(C)nc2ccccc21 | 1.15 | 4.82 | 2890 |
| CCOC(=O)Cn1c(=O)c(C)nc2ccccc21 | 1 | 1.5 | 4060 |
